Results on 2 compounds are retold here after patent EP4271680B1, “GOLD (I) COMPLEXES WITH FLUORINATED N-HETEROCYCLIC CARBENE LIGANDS AND USE THEREOF AS THERAPEUTIC AGENTS” (priority 2020, dated 2022).

For orientation: CC50 means the concentration giving 50% cytotoxicity.

One data set relates to lignée cellulaire Thp1. Put plainly: Cytotoxicity by MTT test on Thp1 cell line. It counts as cell-based, humains. As to the method:
L'évaluation de la cytotoxicité des complexes selon l'invention par test MTT sur la lignée cellulaire Thp1 (lignée cellulaire de monocytes humains) a été réalisée selon Mosmann avec de légères modifications. En bref, les cellules (0,77.10^5 cellules/ml) dans 200 µL du milieu complet [RPMI 1640 supplémenté avec 10% de sérum de veau fœtal (FCS), 2 mM de L-glutamine et des antibiotiques (100 U/ml) pénicilline et 100 µg/ml de streptomycine)]+ PMA (50 ng/ml) ont été ensemencées dans chaque puits de plaques à 96 puits et incubées à 37°C sous atmosphère humidifiée à 5% de CO2 avec 95% d'air. Après une incubation de 96 h, les plaques ont été lavées 3 fois avec du milieu et 100 µl de milieu ont été ajoutés. Diverses concentrations et contrôles appropriés ont ensuite été ajoutés (100 µl) et les plaques ont été incubées pendant 72 h à 37°C.
Chaque puits a ensuite été examiné au microscope pour détecter la formation possible de précipité avant l'aspiration du milieu. Une solution de MTT (0,5 mg/ml dans du RPMI, 100 µl) a ensuite été ajoutée à chaque puits. Les cellules ont été incubées pendant 2 h à 37°C. La solution de MTT a ensuite été éliminée et du DMSO (100 µl) a été ajouté pour dissoudre les cristaux de formazan résultants. Les plaques ont été secouées vigoureusement (300 tr/min) pendant 5 min.
L'absorbance a été mesurée à 570 nm avec un spectrophotomètre pour microplaques. Le DMSO a été utilisé comme blanc et la doxorubicine (Sigma Aldrich) comme contrôle positif. Les CC50 ont été calculés par analyse de régression non linéaire traitée sur des courbes dose-réponse, à l'aide du logiciel TableCurve 2D V5.
(In general: Formazan colour is commonly taken as a measure of viable cells.)

Data set [1] concerns amastigotes axéniques de L. infantum. The data set can be described thus: Anti-leishmanial activity on axenic amastigotes of L. infantum (luciferase luminescence). Particulars: for IC50: Leishmania infantum, mean of three independent experiments.
[2] abbreviates: read-out: Amastigotes axéniques de L. infantum CI50, Tableau 2.
Setting [3] is: Tableau 2, CC50 Thp1 / CI50 axenic amastigotes of L. infantum.

Molecules are shown by their SMILES. Where two headings read alike, the source gives them in different places.

`C[C@@H]1[C@H](O)[C@@H](C)/C=C/C=C/C=C/C=C/C=C/C=C/C=C/[C@H](O[C@@H]2O[C@H](C)[C@@H](O)[C@H](N)[C@@H]2O)C[C@@H]2O[C@](O)(C[C@@H](O)C[C@@H](O)[C@H](O)CC[C@@H](O)C[C@@H](O)CC(=O)O[C@H]1C)C[C@H](O)[C@H]2C(=O)O` [Amphotéricine B, reference compound]: the CC50 with lignée cellulaire Thp1 (Tableau 3, separate experiments, mean of three independent experiments, read-out: Thp1 CC50) came to 13.1 µM; in the data set with lignée cellulaire Thp1 (read-out: CC50 sur la lignée cellulaire humaine Thp1) it was 10.5 µM. Moreover, the IC50 in data set [1] (setting [2]) stood at 0.075 µM; in data set [1] (read-out: Amastigotes axéniques de L. infantum CI50, Tableau 3, separate experiments), 0.06 µM. The “Indice de sélectivité CC50/IC50 SI” value is on record as 139,87 in data set [1] (setting [3]) and 218,83 in data set [1] (Tableau 3, separate experiments, CC50 Thp1 / CI50 axenic amastigotes).

For `FC(F)(F)c1cc(-n2cc[n+](-c3ccc4ccccc4n3)c2)cc(C(F)(F)F)c1` [compound 17, Chlorurede 1-(3,5-Bis(trifluoromethyl)phenyl)-3-(quinolin-2-yl)-1H-imidazol-3-ium], in the data set with lignée cellulaire Thp1, the “toxicité (in words)” value is recorded as “plutôt toxique”. Further, the IC50 in data set [1] (setting [2]) amounted to 14.5 µM. Besides, in data set [1] (setting [3]), the “Indice de sélectivité CC50/IC50 SI” value is given as 3,07. The “activité anti-leishmanienne (in words)” value in data set [1] (axenic amastigotes of L. infantum) is “modérément actif”.
